From US20200222391A1, “SOLID PREPARATION OF CARIPRAZINE FOR ORAL ADMINISTRATION” (Richter Gedeon Nyrt., priority 2017, published 2020)
Structures can show the parent of a compound that is named as a salt. Where two headings read alike, the source gives them in different places.

Columns and labels:
[1] = Caco-2 model of drug absorption (permeability); type: in vitro ADME; conditions: human, read-out: permeability directional ratio (PDR)
Experimental: In the Caco-2 model of drug absorption, the permeability coefficients of cariprazine in inward and outward directions were calculated to be 26.4.10-6 cm/sec and 51.2.10-6 cm/sec, respectively (permeability directional ratio (PDR): 1.9) (Artursson P & Karlsson J (1991). “Correlation between oral drug absorption in humans and apparent drug permeability coefficients in human intestinal epithelial (Caco-2) cells”. Biochem Biophys Res Comm 175 (3): 880-5 and internal data).

[2] = pH-solubility of cariprazine hydrochloride at 37° C.; type: physicochemical
Description: Cariprazine salts are very well soluble in acidic environment. However, drugs, which are soluble in acidic environment can be practically insoluble in neutral or basic environment.

CN(C)C(=O)N[C@H]1CC[C@H](CCN2CCN(c3cccc(Cl)c3Cl)CC2)CC1 [cariprazine, trans-N-{4-[2-[4-(2,3-dichlorophenyl)-piperazin-1-yl]-ethyl]-cyclohexyl}-N′,N′-dimethylurea]
efflux ratio [1]: 1.9

CN(C)C(=O)N[C@H]1CC[C@H](CCN2CCN(c3cccc(Cl)c3Cl)CC2)CC1 [cariprazine hydrochloride]
pH value of best solubility [2]: ~3 | solubility ([2]; 37 °C, pH 1, simulated gastric fluid, pH 1, read-out: Solubility): 3260 µg/mL | solubility ([2]; 37 °C, pH 2, simulated gastric fluid, pH 2, read-out: Solubility): 8930 µg/mL | solubility ([2]; 37 °C, pH 3, aqueous buffer, pH 3, read-out: Solubility): 11000 µg/mL | solubility ([2]; 37 °C, pH 4, aqueous buffer, pH 4, read-out: Solubility): 3230 µg/mL | solubility ([2]; 37 °C, pH 5, aqueous buffer, pH 5, read-out: Solubility): 351 µg/mL | solubility ([2]; 37 °C, pH 5.5, aqueous buffer, pH 5.5, read-out: Solubility): 149 µg/mL | solubility ([2]; 37 °C, pH 6, aqueous buffer, pH 6, read-out: Solubility): 18.8 µg/mL | solubility ([2]; 37 °C, pH 7, aqueous buffer, pH 7, read-out: Solubility): 1 µg/mL | solubility ([2]; pH 1, hydrochloride): 3257.9 µg/mL | solubility ([2]; pH 7, hydrochloride): 1.3 µg/mL
